Measurements reported in EP3375430A1, “FRAGRANCE COMPOSITIONS” (Takasago International Corporation, priority 2017, dated 2018).

Assay: Amount of fragrance ingredients retained on paper blotter after evaporation (ethanol extraction, GC-MS)
Format: physicochemical
Description: A fragrance (hereafter fragrance TAK, the formulation of which is shown in table 1) was formulated in a typical Eau de Toilette (EdT1) or in fragrance compositions according to the invention (compositions C1 to C4), as shown in table 2. The amount of individual fragrance ingredients retained on paper substrate (blotter) after set time periods was assessed by the following method.
100µL samples of either EdT1 or compositions C1 to C4 were applied to 4.5cm long standard paper blotters with a microsyringe. Three replicate blotters were prepared for each extraction time. After the appropriate evaporation time each of the 3 blotters was transferred to a 30mL glass bottle. 3mL of ethanol and 50µL of a 1% solution of methyl decanoate in ethanol as an internal standard were added. The bottle was sealed and placed on a roller bed to extract the blotter for 1 hour. A sample of the extracting solution was transferred to a vial which was sealed and analysed by gas chromatography (GC 6890) with a Mass Spectrometer detector (MS 5973) using the method described below. The results of the three replicate measurements were averaged. At exact times the same extraction was repeated on the remaining blotters which were stored on a warm surface at 32°C open to the air to allow evaporation. The gas chromatography conditions were as given below.
• Initial Temp: 50°C • Initial Time: 2 min • Rate: 10°C /min • Final Temp: 280°C • Final Time: 5 min • Run Time: 30 min
• Column: HP-5MS 30m * 0.25mm * 0.25µm • Gas: Helium • Constant Pressure 18.55 psi
• Split mode Ratio 40:1 • Inlet Temp: 250°C
• MS 5973 • Mass range: 35 to 350 • Threshold: 100 • Mass Quad: 150°C • Mass Source: 230°C
To simplify the results the average amount of each fragrance ingredient from the 3 samples measured at time zero was set at 100% and all other measurements were then related to that value so tables 3 to 6 show decreasing amounts of fragrance ingredients as a percentage of the initial amount.
The method of example 1 was repeated using a commercial fragrance (hereafter fragrance COM1, the formulation of which is given in table 7) formulated in a typical Eau de Toilette (EdT2) or in fragrance compositions according to the invention (compositions C5 and C6), as shown in table 8.

[1] = Table 9, fragrance COM1 in C5, T0 + 15 min
[2] = Table 9, fragrance COM1 in C5, T0 + 480 min
[3] = Table 9, fragrance COM1 in C5, T0 +1440 min
[4] = Table 9, fragrance COM1 in C6, T0 + 15 min
[5] = Table 9, fragrance COM1 in C6, T0 + 480 min
[6] = Table 9, fragrance COM1 in C6, T0 +1440 min
[7] = Table 9, fragrance COM1 in EdT2, C5 or C6, T0, set at 100% (normalisation)
[8] = Table 9, fragrance COM1 in EdT2, T0 + 15 min
[9] = Table 9, fragrance COM1 in EdT2, T0 + 480 min
[10] = Table 9, fragrance COM1 in EdT2, T0 +1440 min

Molecule: CC1(C)CCC[C@]2(C)[C@H]3CCO[C@]3(C)CC[C@@H]12 [Ambroxan™, (3aR,5aS,9aS,9bR)-3a,6,6,9a-tetramethyl-2,4,5,5a,7,8,9,9b-octahydro-1H-benzo[e][1]benzofuran]
- amount of fragrance ingredient retained on blotter (percentage of the initial amount) [1]: 85.4%
- amount of fragrance ingredient retained on blotter (percentage of the initial amount) [2]: 68.9%
- amount of fragrance ingredient retained on blotter (percentage of the initial amount) [3]: 40.11%
- amount of fragrance ingredient retained on blotter (percentage of the initial amount) [4]: 75.6%
- amount of fragrance ingredient retained on blotter (percentage of the initial amount) [5]: 52.6%
- amount of fragrance ingredient retained on blotter (percentage of the initial amount) [6]: 29.9%
- amount of fragrance ingredient retained on blotter (percentage of the initial amount) [7]: 100%
- amount of fragrance ingredient retained on blotter (percentage of the initial amount) [8]: 81.5%
- amount of fragrance ingredient retained on blotter (percentage of the initial amount) [9]: 56.6%
- amount of fragrance ingredient retained on blotter (percentage of the initial amount) [10]: 15.42%

Molecule: CC(C)(C)c1ccc(CCC=O)cc1 [Bourgeonal™, 3-(4-tert-butylphenyl)propanal]
- amount of fragrance ingredient retained on blotter (percentage of the initial amount) [1]: 86%
- amount of fragrance ingredient retained on blotter (percentage of the initial amount) [2]: 59.8%
- amount of fragrance ingredient retained on blotter (percentage of the initial amount) [3]: 28.82%
- amount of fragrance ingredient retained on blotter (percentage of the initial amount) [4]: 75.6%
- amount of fragrance ingredient retained on blotter (percentage of the initial amount) [5]: 43.6%
- amount of fragrance ingredient retained on blotter (percentage of the initial amount) [6]: 20.9%
- amount of fragrance ingredient retained on blotter (percentage of the initial amount) [7]: 100%
- amount of fragrance ingredient retained on blotter (percentage of the initial amount) [8]: 81.4%
- amount of fragrance ingredient retained on blotter (percentage of the initial amount) [9]: 43.9%
- amount of fragrance ingredient retained on blotter (percentage of the initial amount) [10]: 13.42%

Molecule: CC(C=O)Cc1ccc(C(C)C)cc1 (stereo not drawn) [Cyclamen aldehyde]
- amount of fragrance ingredient retained on blotter (percentage of the initial amount) [1]: 85.8%
- amount of fragrance ingredient retained on blotter (percentage of the initial amount) [2]: 45.2%
- amount of fragrance ingredient retained on blotter (percentage of the initial amount) [3]: 14.71%
- amount of fragrance ingredient retained on blotter (percentage of the initial amount) [4]: 75.4%
- amount of fragrance ingredient retained on blotter (percentage of the initial amount) [5]: 33.2%
- amount of fragrance ingredient retained on blotter (percentage of the initial amount) [6]: 12.0%
- amount of fragrance ingredient retained on blotter (percentage of the initial amount) [7]: 100%
- amount of fragrance ingredient retained on blotter (percentage of the initial amount) [8]: 81.5%
- amount of fragrance ingredient retained on blotter (percentage of the initial amount) [9]: 30.7%
- amount of fragrance ingredient retained on blotter (percentage of the initial amount) [10]: 7.12%

Molecule: CC=CC(=O)C1=C(C)CCCC1(C)C [Damascone beta]
- amount of fragrance ingredient retained on blotter (percentage of the initial amount) [1]: 81.9%
- amount of fragrance ingredient retained on blotter (percentage of the initial amount) [2]: 20.5%
- amount of fragrance ingredient retained on blotter (percentage of the initial amount) [3]: 2.12%
- amount of fragrance ingredient retained on blotter (percentage of the initial amount) [4]: 74.8%
- amount of fragrance ingredient retained on blotter (percentage of the initial amount) [5]: 14.7%
- amount of fragrance ingredient retained on blotter (percentage of the initial amount) [6]: 1.9%
- amount of fragrance ingredient retained on blotter (percentage of the initial amount) [7]: 100%
- amount of fragrance ingredient retained on blotter (percentage of the initial amount) [8]: 78.2%
- amount of fragrance ingredient retained on blotter (percentage of the initial amount) [9]: 10.6%
- amount of fragrance ingredient retained on blotter (percentage of the initial amount) [10]: 4.25%

Molecule: O=C1CCCCCCCCCCCC(=O)OCCO1 [Ethylene Brassylate]
- amount of fragrance ingredient retained on blotter (percentage of the initial amount) (Table 3, fragrance TAK in C1, 15 min, 32°C): 81%
- amount of fragrance ingredient retained on blotter (percentage of the initial amount) (Table 3, fragrance TAK in C1, 60 min, 32°C): 79%
- amount of fragrance ingredient retained on blotter (percentage of the initial amount) (Table 3, fragrance TAK in C1, 120 min, 32°C): 81%
- amount of fragrance ingredient retained on blotter (percentage of the initial amount) (Table 3, fragrance TAK in C1, 240 min, 32°C): 86%
- amount of fragrance ingredient retained on blotter (percentage of the initial amount) (Table 3, fragrance TAK in C1, 480 min, 32°C): 79%
- amount of fragrance ingredient retained on blotter (percentage of the initial amount) (Table 3, fragrance TAK in EdT1, 15 min, 32°C): 88%
- amount of fragrance ingredient retained on blotter (percentage of the initial amount) (Table 3, fragrance TAK in EdT1, 60 min, 32°C): 85%
- amount of fragrance ingredient retained on blotter (percentage of the initial amount) (Table 3, fragrance TAK in EdT1, 120 min, 32°C): 90%
- amount of fragrance ingredient retained on blotter (percentage of the initial amount) (Table 3, fragrance TAK in EdT1, 240 min, 32°C): 98%
- amount of fragrance ingredient retained on blotter (percentage of the initial amount) (Table 3, fragrance TAK in EdT1, 480 min, 32°C): 100%
- amount of fragrance ingredient retained on blotter (percentage of the initial amount) (Table 3, fragrance TAK in EdT1 or C1, T0, set at 100% (normalisation)): 100%
- amount of fragrance ingredient retained on blotter (percentage of the initial amount) (Table 4, fragrance TAK in C2, 15 min, 32°C): 97%
- amount of fragrance ingredient retained on blotter (percentage of the initial amount) (Table 4, fragrance TAK in C2, 480 min, 32°C): 77%
- amount of fragrance ingredient retained on blotter (percentage of the initial amount) (Table 4, fragrance TAK in EdT1, 15 min, 32°C): 87%
- amount of fragrance ingredient retained on blotter (percentage of the initial amount) (Table 4, fragrance TAK in EdT1, 480 min, 32°C): 73%
- amount of fragrance ingredient retained on blotter (percentage of the initial amount) (Table 4, fragrance TAK in EdT1 or C2, T0, set at 100% (normalisation)): 100%
- amount of fragrance ingredient retained on blotter (percentage of the initial amount) (Table 5, fragrance TAK in C3, 15 min, 32°C): 80%
- amount of fragrance ingredient retained on blotter (percentage of the initial amount) (Table 5, fragrance TAK in C3, 60 min, 32°C): 93%
- amount of fragrance ingredient retained on blotter (percentage of the initial amount) (Table 5, fragrance TAK in C3, 120 min, 32°C): 93%
- amount of fragrance ingredient retained on blotter (percentage of the initial amount) (Table 5, fragrance TAK in C3, 240 min, 32°C): 100%
- amount of fragrance ingredient retained on blotter (percentage of the initial amount) (Table 5, fragrance TAK in C3, 480 min, 32°C): 82%
- amount of fragrance ingredient retained on blotter (percentage of the initial amount) (Table 5, fragrance TAK in C3, 1440 min, 32°C): 96%
- amount of fragrance ingredient retained on blotter (percentage of the initial amount) (Table 5, fragrance TAK in EdT1, 15 min, 32°C): 88%
- amount of fragrance ingredient retained on blotter (percentage of the initial amount) (Table 5, fragrance TAK in EdT1, 60 min, 32°C): 85%
- amount of fragrance ingredient retained on blotter (percentage of the initial amount) (Table 5, fragrance TAK in EdT1, 120 min, 32°C): 90%
- amount of fragrance ingredient retained on blotter (percentage of the initial amount) (Table 5, fragrance TAK in EdT1, 240 min, 32°C): 98%
- amount of fragrance ingredient retained on blotter (percentage of the initial amount) (Table 5, fragrance TAK in EdT1, 480 min, 32°C): 100%
- amount of fragrance ingredient retained on blotter (percentage of the initial amount) (Table 5, fragrance TAK in EdT1, 1440 min, 32°C): 85%
- amount of fragrance ingredient retained on blotter (percentage of the initial amount) (Table 5, fragrance TAK in EdT1 or C3, T0, set at 100% (normalisation)): 100%
- amount of fragrance ingredient retained on blotter (percentage of the initial amount) (Table 6, fragrance TAK in C4, 15 min, 32°C): 100%
- amount of fragrance ingredient retained on blotter (percentage of the initial amount) (Table 6, fragrance TAK in C4, 60 min, 32°C): 93%
- amount of fragrance ingredient retained on blotter (percentage of the initial amount) (Table 6, fragrance TAK in C4, 120 min, 32°C): 96%
- amount of fragrance ingredient retained on blotter (percentage of the initial amount) (Table 6, fragrance TAK in C4, 240 min, 32°C): 100%
- amount of fragrance ingredient retained on blotter (percentage of the initial amount) (Table 6, fragrance TAK in C4, 480 min, 32°C): 100%
- amount of fragrance ingredient retained on blotter (percentage of the initial amount) (Table 6, fragrance TAK in EdT1, 15 min, 32°C): 88%
- amount of fragrance ingredient retained on blotter (percentage of the initial amount) (Table 6, fragrance TAK in EdT1, 60 min, 32°C): 85%
- amount of fragrance ingredient retained on blotter (percentage of the initial amount) (Table 6, fragrance TAK in EdT1, 120 min, 32°C): 90%
- amount of fragrance ingredient retained on blotter (percentage of the initial amount) (Table 6, fragrance TAK in EdT1, 240 min, 32°C): 98%
- amount of fragrance ingredient retained on blotter (percentage of the initial amount) (Table 6, fragrance TAK in EdT1, 480 min, 32°C): 100%
- amount of fragrance ingredient retained on blotter (percentage of the initial amount) (Table 6, fragrance TAK in EdT1 or C4, T0, set at 100% (normalisation)): 100%

Molecule: Methyl ionone gamma
- amount of fragrance ingredient retained on blotter (percentage of the initial amount) [1]: 84.0%
- amount of fragrance ingredient retained on blotter (percentage of the initial amount) [2]: 32.8%
- amount of fragrance ingredient retained on blotter (percentage of the initial amount) [3]: 5.68%
- amount of fragrance ingredient retained on blotter (percentage of the initial amount) [4]: 74.2%
- amount of fragrance ingredient retained on blotter (percentage of the initial amount) [5]: 23.3%
- amount of fragrance ingredient retained on blotter (percentage of the initial amount) [6]: 5.2%
- amount of fragrance ingredient retained on blotter (percentage of the initial amount) [7]: 100%
- amount of fragrance ingredient retained on blotter (percentage of the initial amount) [8]: 79.2%
- amount of fragrance ingredient retained on blotter (percentage of the initial amount) [9]: 16.4%
- amount of fragrance ingredient retained on blotter (percentage of the initial amount) [10]: 3.77%
